# Results: the supplement of paper PMC10307832
# Experiments:
# Experiment in all cases: relative viability (nuclei count vs DMSO), 5 days (fraction); higher = more cells survive
# [1] = compound: CC1=C(C(=NN1)C)CC2=C(C3=C(S2)N(C(=O)N(C3=O)C)CC(C)C)C(=O)N4C[C@@H](CO4)O + CC(=O)c1c(C)c2cnc(Nc3ccc(N4CCNCC4)cn3)nc2n(C2CCCC2)c1=O [Palbociclib] (partner 0.5 µM)
# Procedure, shortened: (§1)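 Lung cancer cell lines in 1536-well plates were dosed by pin tool the day after seeding, either with one drug alone or with a fixed anchor-drug dose plus five library-drug doses (not always all listed) in √10 steps. After 5 days, cells were fixed and their nuclei stained in one step (final 0.05% Triton X-100, 1% formaldehyde, 1 ug/ml Hoechst), then counted on 4× images. Relative viability is the nuclei count in treated wells divided by that in vehicle wells. Values are medians of duplicate plates.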
# IDH-C35 + Palbociclib = compound: Cc1ccccc1C(C(=O)NC1CCCCC1)N(C(=O)Cn1ccnc1C)c1cccc(F)c1 [IDH-C35] + CC(=O)c1c(C)c2cnc(Nc3ccc(N4CCNCC4)cn3)nc2n(C2CCCC2)c1=O [Palbociclib] (partner 0.5 µM)
# Procedure, shortened: as §1
# IDH-C35 + Pictilisib = compound: Cc1ccccc1C(C(=O)NC1CCCCC1)N(C(=O)Cn1ccnc1C)c1cccc(F)c1 [IDH-C35] + CS(=O)(=O)N1CCN(Cc2cc3nc(-c4cccc5[nH]ncc45)nc(N4CCOCC4)c3s2)CC1 [Pictilisib] (partner 1 µM)
# Procedure, shortened: as §1
# IDH-C35 + Olaparib = compound: Cc1ccccc1C(C(=O)NC1CCCCC1)N(C(=O)Cn1ccnc1C)c1cccc(F)c1 [IDH-C35] + O=C(c1cc(Cc2n[nH]c(=O)c3ccccc23)ccc1F)N1CCN(C(=O)C2CC2)CC1 [Olaparib] (partner 8 µM)
# Procedure, shortened: as §1
Cell Line,relative viability ([1]; first compound 0.0025 µM),relative viability ([1]; first compound 0.007906 µM),relative viability ([1]; first compound 0.025 µM),relative viability ([1]; first compound 0.07906 µM),relative viability ([1]; first compound 0.25 µM),relative viability (IDH-C35 + Palbociclib; first compound 0.08 µM),relative viability (IDH-C35 + Palbociclib; first compound 0.253 µM),relative viability (IDH-C35 + Palbociclib; first compound 0.8 µM),relative viability (IDH-C35 + Palbociclib; first compound 2.53 µM),relative viability (IDH-C35 + Palbociclib; first compound 8 µM),relative viability (IDH-C35 + Pictilisib; first compound 0.08 µM),relative viability (IDH-C35 + Pictilisib; first compound 0.253 µM),relative viability (IDH-C35 + Pictilisib; first compound 0.8 µM),relative viability (IDH-C35 + Pictilisib; first compound 2.53 µM),relative viability (IDH-C35 + Pictilisib; first compound 8 µM),relative viability (IDH-C35 + Olaparib; first compound 0.08 µM),relative viability (IDH-C35 + Olaparib; first compound 0.253 µM),relative viability (IDH-C35 + Olaparib; first compound 0.8 µM),relative viability (IDH-C35 + Olaparib; first compound 2.53 µM),relative viability (IDH-C35 + Olaparib; first compound 8 µM)
201T,0.358,0.355,0.369,0.327,0.367,0.361,0.375,0.346,0.351,0.343,0.651,0.731,0.634,0.661,0.676,0.762,0.824,0.799,0.81,0.841
A549,–,–,–,–,–,–,–,–,–,–,0.532,0.504,0.595,0.472,0.401,0.447,0.346,0.268,0.168,0.112
A-427,0.524,0.514,0.515,0.548,0.578,0.529,0.527,0.511,0.512,0.545,0.621,0.801,0.615,0.466,0.791,0.698,0.637,0.732,0.742,0.77
ABC-1,0.72,0.445,–,0.638,0.729,0.765,0.819,0.491,0.785,0.824,0.675,0.667,0.617,0.984,0.908,0.668,1.04,0.77,0.819,0.906
BEN,0.448,0.484,0.471,0.423,0.502,0.433,0.514,0.466,0.481,0.463,0.545,0.568,0.54,0.54,0.505,1.06,1.11,1.03,0.952,0.995
CAL-12T,0.481,0.413,0.484,0.574,0.418,0.524,0.575,0.414,0.525,0.408,0.347,0.429,0.559,0.339,0.608,0.761,0.73,0.629,0.747,0.701
COR-L23,0.291,0.266,0.238,0.245,0.318,0.31,0.294,0.305,0.311,0.315,0.85,0.769,0.833,0.79,0.833,0.332,0.391,0.317,0.31,0.349
COR-L 105,0.433,0.423,0.395,0.403,0.383,0.417,0.413,0.41,0.407,0.401,0.442,0.477,0.354,0.383,0.392,0.606,0.681,0.713,0.614,0.714
Calu-6,–,–,–,–,–,–,–,–,–,–,0.875,0.895,0.881,0.877,0.898,0.57,0.563,0.609,0.558,0.571
ChaGo-K-1,0.956,0.937,0.943,0.878,0.931,0.921,0.907,0.92,0.898,0.983,0.451,0.71,0.742,0.681,0.918,0.432,0.432,0.438,0.452,0.42
EBC-1,–,–,–,–,–,–,–,–,–,–,0.397,0.414,0.339,0.353,0.377,0.702,0.689,0.724,0.778,0.703
EKVX,0.475,0.44,0.417,0.368,0.39,0.402,0.365,0.385,0.356,0.373,0.42,0.459,0.371,0.423,0.475,0.859,0.892,0.836,0.918,0.802
EMC-BAC-2,0.549,0.543,0.499,0.569,0.549,0.522,0.505,0.563,0.543,0.497,0.493,0.55,0.51,0.487,0.521,0.496,0.509,0.472,0.507,0.482
EPLC-272H,0.322,0.315,0.319,0.324,0.331,0.294,0.347,0.353,–,0.316,0.369,0.338,0.283,–,0.329,0.836,0.866,1.24,0.904,0.603
H3255,0.32,0.326,0.269,0.296,0.315,0.315,0.281,0.337,0.305,0.326,0.454,0.546,0.474,0.503,0.424,0.554,0.576,0.579,0.63,0.553
HARA,0.308,0.199,0.28,0.247,0.264,0.222,0.298,0.268,0.311,0.234,0.369,0.455,0.483,0.415,0.328,0.835,1.03,0.742,0.725,0.845

Cell Line,relative viability ([1]; first compound 0.0025 µM),relative viability ([1]; first compound 0.007906 µM),relative viability ([1]; first compound 0.025 µM),relative viability ([1]; first compound 0.07906 µM),relative viability ([1]; first compound 0.25 µM),relative viability (IDH-C35 + Palbociclib; first compound 0.08 µM),relative viability (IDH-C35 + Palbociclib; first compound 0.253 µM),relative viability (IDH-C35 + Palbociclib; first compound 0.8 µM),relative viability (IDH-C35 + Palbociclib; first compound 2.53 µM),relative viability (IDH-C35 + Palbociclib; first compound 8 µM),relative viability (IDH-C35 + Pictilisib; first compound 0.08 µM),relative viability (IDH-C35 + Pictilisib; first compound 0.253 µM),relative viability (IDH-C35 + Pictilisib; first compound 0.8 µM),relative viability (IDH-C35 + Pictilisib; first compound 2.53 µM),relative viability (IDH-C35 + Pictilisib; first compound 8 µM),relative viability (IDH-C35 + Olaparib; first compound 0.08 µM),relative viability (IDH-C35 + Olaparib; first compound 0.253 µM),relative viability (IDH-C35 + Olaparib; first compound 0.8 µM),relative viability (IDH-C35 + Olaparib; first compound 2.53 µM),relative viability (IDH-C35 + Olaparib; first compound 8 µM)
HCC-15,0.788,0.77,0.726,0.727,0.788,0.791,0.695,0.748,–,0.67,0.719,0.727,0.682,0.618,0.645,0.712,0.733,0.724,–,0.667
HCC-44,0.989,0.992,0.961,0.894,1.05,0.973,0.965,0.987,0.951,0.962,0.537,0.593,0.551,0.674,0.632,0.987,0.927,0.988,0.964,0.923
HCC-78,0.534,0.546,0.464,0.469,0.44,0.462,0.437,0.439,0.494,0.553,0.211,0.243,0.199,0.243,0.219,0.91,0.78,0.883,0.932,0.741
HCC-366,0.377,0.406,0.387,0.372,0.523,0.374,0.399,0.381,0.38,0.321,0.12,0.132,0.169,0.151,0.178,0.353,0.361,0.345,0.36,0.326
HCC-827,0.403,0.414,0.339,0.541,0.466,0.475,0.483,0.397,0.562,0.472,0.966,0.921,1.02,1.13,1.17,0.545,0.608,0.614,0.708,0.658
HOP-62,0.409,0.418,0.461,0.404,0.574,0.377,0.435,0.426,0.419,0.394,0.509,0.744,0.537,–,0.581,0.46,0.222,0.272,–,0.39
IA-LM,–,–,–,–,–,–,–,–,–,–,0.381,0.382,0.33,0.325,0.322,0.872,0.88,0.731,0.744,0.963
LC-2-ad,0.46,0.518,0.456,0.467,0.55,0.527,0.476,0.531,0.49,0.494,0.595,0.472,0.439,0.441,0.455,0.728,0.707,0.715,0.729,0.702
NCI-H522,1.08,1.02,0.852,0.521,0.618,1.07,1.07,1.01,0.944,0.99,–,–,–,–,–,0.594,0.687,0.657,0.59,0.746
NCI-H596,–,–,–,–,–,–,–,–,–,–,0.434,0.442,0.435,0.537,0.384,0.591,0.653,0.773,0.751,0.785
NCI-H1299,–,–,–,–,–,–,–,–,–,–,0.818,0.671,0.96,0.759,0.745,1.04,0.977,0.979,1.04,0.998
NCI-H1563,–,–,–,–,–,–,–,–,–,–,0.646,0.682,0.662,0.619,0.619,–,–,–,–,–
NCI-H1648,0.261,0.271,0.297,0.207,0.283,–,0.271,0.322,0.246,0.285,–,–,–,–,–,–,0.765,0.801,0.681,0.782
NCI-H1703,–,–,–,–,–,–,–,–,–,–,0.235,0.264,0.285,0.262,0.206,0.293,0.47,0.441,0.383,0.434
NCI-H2342,0.514,0.562,0.442,0.502,0.593,0.578,0.535,0.475,0.526,0.662,–,–,–,–,–,0.435,0.49,0.41,0.467,0.377
SW 900,0.541,0.583,0.624,0.497,0.651,0.487,0.568,–,0.522,0.506,–,–,–,–,–,0.915,0.819,–,1.02,0.83
